US8642612B2, “Nicotinic desensitizers and methods of selecting, testing, and using them” (Potomac Pharmaceuticals, Inc., priority 2006, dated 2014)
Read-outs that look alike come from different tables or passages of the source.

Tests used:
human α4β2 nAChRs [1] = biological target: T1, human α4β2 nAChRs (Homo sapiens, UniProt P17787+P43681); assay: biochemical; type: binding
T1 construct: expressed in transfected cells; the efflux text says only stably transfected cells
Protocol: (§1) Briefly, cultured cells at >80% confluence were removed from their flasks (80 cm^2) with a disposable cell scraper and placed in 10 ml of 50 mM Tris HCl buffer (pH 7.4, 4° C.). The cell suspension was centrifuged at 10,000×g for 5 min and the pellet was collected. For cells treated chronically with nicotinic agonists during culturing, the pellet was washed two more times by centrifugation in fresh buffer to remove residual drug. The cell pellet was then homogenized in 10 ml buffer with a polytron homogenizer (Model PT2100, 12 mm aggregate, 26,000 rpm, 20 seconds) and centrifuged at 36,000 g for 10 min at 4° C. The membrane pellet was resuspended in fresh buffer, and aliquots of the membrane preparation equivalent to 30 to 200 μg protein were used for binding assays. […] Bound and free ligands were separated by vacuum filtration through Whatman GF/C filters treated with 0.5% polyethylenimine. The filter-retained radioactivity was measured by liquid scintillation counting. Specific binding was defined as the difference between total binding and nonspecific binding. Data from saturation and competition binding assays were analyzed using Prism 4 (GraphPad Software, San Diego, Calif.).
(§2) All ligand binding assays were carried out using rat or human nAChRs heterologously expressed in human cells or in native rat brain tissues.

human α4β2 nAChRs [2] = biological target: T1, human α4β2 nAChRs; assay: Inhibition of nicotine-stimulated 86Rb+ efflux, cells expressing human α4β2 nAChRs; type: cell-based
Protocol: (§3) In brief, cells were plated into 24-well plates coated with poly-D-lysine. […] The cells were then incubated in growth medium (0.5 ml/well) containing ^86Rb^+ (2 μCi/ml) for 4 hour at 37° C. The loading mixture was then aspirated, and the cells were washed four times with 1 ml buffer (15 mM HEPES, 140 mM NaCl, 2 mM KCl, 1 mM MgSO4, 1.8 mM CaCl2, 11 mM Glucose, pH 7.4). One ml of buffer with or without compounds to be tested was then added to each well. After incubation for 2 min, the assay buffer was collected for measurements of ^86Rb^+ released from the cells. Cells were then lysed by adding 1 ml of 100 mM NaOH to each well, and the lysate was collected for determination of the amount of ^86Rb^+ that was in the cells at the end of the efflux assay. Radioactivity of assay samples and lysates was measured by liquid scintillation counting. Total loading (cpm) was calculated as the sum of the assay sample and the lysate of each well. The amount of ^86Rb^+ efflux was expressed as a percentage of […] loaded. […] IC50 values were determined by nonlinear least-squares regression analyses (GraphPad, San Diego, Calif.).

human α4β2 nAChRs [3] = biological target: T1, human α4β2 nAChRs; type: cell-based; details: for Agonist Activity α4β2: stimulation of 86Rb+ efflux
Protocol: as §3
(§4) The agonist activities of ligands on nAChRs were assessed by measuring agonist-stimulated ^86Rb^+ efflux from stably transfected cells.

rat α3β4 nAChRs [4] = biological target: T2, rat α3β4 nAChRs (Rattus norvegicus, UniProt P04757+P12392); type: cell-based; details: for Agonist Activity α3β4: stimulation of 86Rb+ efflux
T2 construct: expressed in transfected cells; the efflux text says only stably transfected cells
Protocol: as §3, §4

rat α3β4 nAChRs [5] = biological target: T2, rat α3β4 nAChRs; assay: Inhibition of nicotine-stimulated 86Rb+ efflux, cells expressing rat α3β4 nAChRs; type: cell-based
Protocol: as §3

rat α4β2 nAChRs = biological target: T3, rat α4β2 nAChRs (Rattus norvegicus, UniProt P09483+P12390); assay: [3H]epibatidine competition binding, rat α4β2 nAChRs expressed in HEK cells
T3 construct: expressed in transfected cells; host or cells: HEK cells (membrane homogenates)
Protocol: as §1, with “drug.” for “drug. The cell pellet was then homogenized in 10 ml buffer with a polytron homogenizer (Model PT2100, 12 mm aggregate, 26,000 rpm, 20 seconds) and centrifuged at 36,000 g for 10 min at 4° C. The membrane pellet was resuspended in fresh buffer, and aliquots of the membrane preparation equivalent to 30 to 200 μg protein were used for binding assays.”
as §2

rat α3β4 nAChRs [6] = biological target: T2, rat α3β4 nAChRs; assay: [3H]epibatidine competition binding, rat α3β4 nAChRs expressed in HEK cells
Protocol: as §1, §2

[7] = added simultaneously with nicotine

OCCCCC#Cc1cncc(OC[C@@H]2CCN2)c1 [Sazetidine-A, 6-(5-(((S)-azetidin-2-yl)methoxy)pyridin-3-yl)hex-5-yn-1-ol]
Ki (human α4β2 nAChRs [1]): 0.64 ± 0.32 nM | concentration that nearly completely inhibited nicotine activation of α4β2 receptors (human α4β2 nAChRs [2]; 10 min preincubation): ~200 nM | IC50 (human α4β2 nAChRs [2]; Acute Antagonist Potency (IC50(A), nM) α4β2, applied simultaneously with nicotine): ≥ 10000 nM | IC50 (human α4β2 nAChRs [2]; Desensitization Potency (IC50(D,10 min), nM) α4β2, 10 min pretreatment before nicotine): 26 nM | IC50 (human α4β2 nAChRs [2]; IC50 α4β2 nAChRs, 0 min Pretreatment, added simultaneously with 100 μM nicotine, mean ± SEM of 3 to 7 experiments): > 10000 nM | IC50 (human α4β2 nAChRs [2]; IC50 α4β2 nAChRs, 10 min Pretreatment, 10 min preincubation, then 100 μM nicotine, mean ± SEM of 3 to 7 experiments): ~30 nM | acute antagonist activity, blockade of nicotine-stimulated 86Rb+ efflux, α4β2 (human α4β2 nAChRs [2]; [7]): no antagonist activity | EC50 for activation of channel function (86Rb+ efflux) (human α4β2 nAChRs [3]; human α4β2 receptors, mean ± SEM, FIG. 2A): could not be calculated | Agonist Activity α4β2 (human α4β2 nAChRs [3]): Not detected | Agonist Activity α4β2 (human α4β2 nAChRs [3]; listed as sazetidine-A): no agonist activity | EC50 for activation of channel function (86Rb+ efflux) (rat α3β4 nAChRs [4]; rat α3β4 receptors, mean ± SEM, FIG. 2B): could not be calculated | Agonist Activity α3β4 (rat α3β4 nAChRs [4]): Not detected | Agonist Activity α3β4 (rat α3β4 nAChRs [4]; listed as sazetidine-A): no agonist activity | blocking of α3β4 nAChRs (rat α3β4 nAChRs [5]; 10 min preincubation): ineffective | IC50 (rat α3β4 nAChRs [5]; Acute Antagonist Potency (IC50(A), nM) α3β4, applied simultaneously with nicotine): > 10000 nM | IC50 (rat α3β4 nAChRs [5]; Desensitization Potency (IC50(D,10 min), nM) α3β4, 10 min pretreatment before nicotine): > 10000 nM | IC50 (rat α3β4 nAChRs [5]; IC50 α3β4 nAChRs, 0 min Pretreatment, added simultaneously with 100 μM nicotine, mean ± SEM of 3 to 7 experiments): > 10000 nM | IC50 (rat α3β4 nAChRs [5]; IC50 α3β4 nAChRs, 10 min Pretreatment, 10 min preincubation, then 100 μM nicotine, mean ± SEM of 3 to 7 experiments): > 10000 nM | acute antagonist activity, blockade of nicotine-stimulated 86Rb+ efflux, α3β4 (rat α3β4 nAChRs [5]; [7]): no antagonist activity | Ki (rat α4β2 nAChRs): 0.41 ± 0.16 nM | Selectivity (Ki ratio: rat α3β4/rat α4β2) (rat α4β2 nAChRs; ratio of Ki values): 24,000 | Ki (rat α4β2 nAChRs; read-out: Equilibrium binding affinity (Ki, nM) α4β2, example tables, species not given): 0.41 nM | Ki (rat α3β4 nAChRs [6]): 10000 nM
